Test results reported in patent US6310091A, “Fungicidal saponin, CAY-1, and isolation thereof from Capsium species fruit” (The United States of America as represented by the …, priority 2000, dated 2001).
Values joined by “and” are separate entries in the source; they are usually repeats but may differ in a detail not shown here. Equal entries are not always repeated. Where two headings read alike, the source gives them in different places.

What was measured:
Type in all cases: cell-based
Aspergillus flavus = test: Fungicidal bioassay on nongerminated and germinating conidia of A. flavus; conditions: for activity at 2 µM / activity at 3 µM / activity at 4 µM / activity at 5 µM / activity at 7.5 µM / activity at 10 µM / activity at 1 µM / activity at 2.5 µM: read-out: Percent of Mean Control
Experimental: (§1) 1. Filamentous fungi. Filamentous fungi used in bioassays included Aspergillus flavus, A. fumigatus, A. niger, A. parasiticus and Fusarium oxysporum. The fungicidal properties of CAY-1 for the nongerminated and germinating conidia of these fungi were determined separately as described by De Lucca et al. [Med. Mycol., 36:291-298 (1998)] and De Lucca et al. [Antimicrob. Agents Chemother. 43:371-373 (1999)]. […] Two separate experiments were conducted in each medium (n=8 per medium).
(§2) A suspension of the aforementioned fungi were prepared separately in the appropriate medium. Conidia (10^4 conidia/ml) were used immediately for the nongerminated conidial assays while conidia (10^5 conidia/ml) were incubated for 7.5 hours at 30° C. to obtain germinating conidia. Serial dilutions of CAY-1 were prepared in the appropriate medium (totaling 225 μl) to which was added 25 μl of the conidial suspensions. The control consisted of 225 μl of medium and 25 μl of the conidial suspension. After mixing, the samples were incubated for 30 min (30° C.). Samples were then spread on potato dextrose agar plates which were incubated at 30° C. for 24 hours. Colonies were then enumerated.
(§3) Statistical analyses. ANOVA analyses on ranks for nonparametric data were performed for the bioassays described in this example.

[1] = tested on: Escherichia coli ATCC 8739; test: Bacterial lethality; conditions: 0.5-10 μM; 37° C., 24 hrs
Experimental: (§4) 5. Bacteria. CAY-1 lethality to Escherichia coli ATCC 8739, Enterobacter agglomerans ATCC 27996, Bacillus subtilis ATCC 6051 and Staphylococcus aureus ATCC 12600 was determined by methods described earlier (De Lucca et al., Mol. cell Biochem., 1995, 151:141-148). Briefly, 24 hr bacterial cultures were washed and resuspended in 0.1 M PBS, pH 7.2, amended with 0.15 mM MgCl2 and 0.5 mM CaCl2 and adjusted to 80% transmittance (approximately 10^8 cells/ml) at 590 nm. Bacterial suspensions were mixed with PBS and CAY-1 (final concentrations: 0, 0.5, 1, 2, 4, 8, 10 μM) in sterile 96-well plates (Nunc, Roskilde, Denmark) and incubated (37° C., 24 hrs). Bioassays were performed twice for each bacteria (n=8).

[2] = tested on: Staphylococcus aureus ATCC 12600; test: Bacterial lethality; conditions: 0.5-10 μM; 37° C., 24 hrs
Experimental: as §4

[3] = tested on: Enterobacter agglomerans ATCC 27996; test: Bacterial lethality; conditions: 0.5-10 μM; 37° C., 24 hrs
Experimental: as §4

[4] = tested on: Bacillus subtilis ATCC 6051; test: Bacterial lethality; conditions: 0.5-10 μM; 37° C., 24 hrs
Experimental: as §4

Aspergillus parasiticus = test: Fungicidal bioassay on nongerminated and germinating conidia of A. parasiticus; conditions: for activity at 5 µM / activity at 10 µM / activity at 15 µM / activity at 20 µM / minimal effective concentration: Aspergillus parasiticus, 0.5 h; for activity at 5 µM / activity at 10 µM / activity at 15 µM / activity at 20 µM: read-out: Percent of Mean Control; for viability reduction: 20.0 μM (24.8 μg/ml)
Experimental: as §1, §2, §3

[5] = nongerminated conidia, either test medium
[6] = nongerminated, RPMI-1640, 5.0 μM
[7] = nongerminated, RPMI-1640, 10.0 μM
[8] = nongerminated, RPMI-1640, 15.0 μM
[9] = nongerminated, RPMI-1640, 20.0 μM

CC1CCC2(OC1)OC1CC3C4CCC5CC(OC6OC(CO)C(OC7OC(CO)C(O)C(OC8OC(CO)C(O)C(OC9OC(CO)C(O)C(O)C9O)C8O)C7OC7OC(CO)C(O)C(O)C7O)C(O)C6O)C(O)CC5(C)C4CCC3(C)C1C2C (stereo not drawn) [CAY-1]
activity at 2 µM (Aspergillus flavus; Aspergillus flavus, 0.5 h, germinating, 1% PDB, 2.0 μM): 90.1%
activity at 3 µM (Aspergillus flavus; Aspergillus flavus, 0.5 h, germinating, 1% PDB, 3.0 μM): 74.4%
activity at 4 µM (Aspergillus flavus; Aspergillus flavus, 0.5 h, germinating, 1% PDB, 4.0 μM): 54.2%
activity at 5 µM (Aspergillus flavus; Aspergillus flavus, 0.5 h, germinating, 1% PDB, 5.0 μM): 34.9%
activity at 7.5 µM (Aspergillus flavus; Aspergillus flavus, 0.5 h, germinating, 1% PDB, 7.5 μM): 11%
activity at 10 µM (Aspergillus flavus; Aspergillus flavus, 0.5 h, germinating, 1% PDB, 10.0 μM): 8.4%
activity at 1 µM (Aspergillus flavus; Aspergillus flavus, 0.5 h, germinating, RPMI-1640, 1.0 μM): 132%
activity at 2.5 µM (Aspergillus flavus; Aspergillus flavus, 0.5 h, germinating, RPMI-1640, 2.5 μM): 145%
activity at 5 µM (Aspergillus flavus; Aspergillus flavus, 0.5 h, germinating, RPMI-1640, 5.0 μM): 62.9%
activity at 7.5 µM (Aspergillus flavus; Aspergillus flavus, 0.5 h, germinating, RPMI-1640, 7.5 μM): 14%
activity at 10 µM (Aspergillus flavus; Aspergillus flavus, 0.5 h, germinating, RPMI-1640, 10.0 μM): 9%
activity at 2 µM (Aspergillus flavus; Aspergillus flavus, 0.5 h, nongerminated, 1% PDB, 2.0 μM): 102%
activity at 3 µM (Aspergillus flavus; Aspergillus flavus, 0.5 h, nongerminated, 1% PDB, 3.0 μM): 102%
activity at 4 µM (Aspergillus flavus; Aspergillus flavus, 0.5 h, nongerminated, 1% PDB, 4.0 μM): 103%
activity at 5 µM (Aspergillus flavus; Aspergillus flavus, 0.5 h, nongerminated, 1% PDB, 5.0 μM): 104%
activity at 7.5 µM (Aspergillus flavus; Aspergillus flavus, 0.5 h, nongerminated, 1% PDB, 7.5 μM): 106%
activity at 10 µM (Aspergillus flavus; Aspergillus flavus, 0.5 h, nongerminated, 1% PDB, 10.0 μM): 108%
activity at 1 µM (Aspergillus flavus; Aspergillus flavus, 0.5 h, nongerminated, RPMI-1640, 1.0 μM): 88.6%
activity at 2.5 µM (Aspergillus flavus; Aspergillus flavus, 0.5 h, nongerminated, RPMI-1640, 2.5 μM): 92.2%
activity at 5 µM (Aspergillus flavus; Aspergillus flavus, 0.5 h, nongerminated, RPMI-1640, 5.0 μM): 91.7%
activity at 7.5 µM (Aspergillus flavus; Aspergillus flavus, 0.5 h, nongerminated, RPMI-1640, 7.5 μM): 90.7%
activity at 10 µM (Aspergillus flavus; Aspergillus flavus, 0.5 h, nongerminated, RPMI-1640, 10.0 μM): 99.2%
LD95 (concentration lethal to 95% of conidia) (Aspergillus flavus; Aspergillus flavus, 0.5 h, read-out: LD95): 12.5 µM and 15.5 µg/mL
minimal effective concentration (Aspergillus flavus; Aspergillus flavus, 0.5 h, read-out: concentration lethal to germinating conidia): 7.5 µM and 9.3 µg/mL
concentration lethal to germinating conidia (Aspergillus flavus; germinating conidia, RPMI-1640, p=0.0187): 7.5 μM and 9.3 μg/ml
Mean No. of Colonies (Aspergillus flavus; germinating, 1% PDB, 2.0 μM): 139.8
Mean No. of Colonies (Aspergillus flavus; germinating, 1% PDB, 3.0 μM): 115.4
Mean No. of Colonies (Aspergillus flavus; germinating, 1% PDB, 4.0 μM): 84.1
Mean No. of Colonies (Aspergillus flavus; germinating, 1% PDB, 5.0 μM): 54.2
Mean No. of Colonies (Aspergillus flavus; germinating, 1% PDB, 7.5 μM): 17.1
Mean No. of Colonies (Aspergillus flavus; germinating, 1% PDB, 10.0 μM): 13.1
Mean No. of Colonies (Aspergillus flavus; germinating, RPMI-1640, 1.0 μM): 52.6
Mean No. of Colonies (Aspergillus flavus; germinating, RPMI-1640, 2.5 μM): 57.8
Mean No. of Colonies (Aspergillus flavus; germinating, RPMI-1640, 5.0 μM): 25.1
Mean No. of Colonies (Aspergillus flavus; germinating, RPMI-1640, 7.5 μM): 5.6
Mean No. of Colonies (Aspergillus flavus; germinating, RPMI-1640, 10.0 μM): 3.6
viability of nongerminated conidia (Aspergillus flavus; [5]): not affected
Mean No. of Colonies (Aspergillus flavus; nongerminated, 1% PDB, 2.0 μM): 54.4
Mean No. of Colonies (Aspergillus flavus; nongerminated, 1% PDB, 3.0 μM): 54.8
Mean No. of Colonies (Aspergillus flavus; nongerminated, 1% PDB, 4.0 μM): 55.2
Mean No. of Colonies (Aspergillus flavus; nongerminated, 1% PDB, 5.0 μM): 55.7
Mean No. of Colonies (Aspergillus flavus; nongerminated, 1% PDB, 7.5 μM): 56.9
Mean No. of Colonies (Aspergillus flavus; nongerminated, 1% PDB, 10.0 μM): 58.0
Mean No. of Colonies (Aspergillus flavus; nongerminated, RPMI-1640, 1.0 μM): 53.6
Mean No. of Colonies (Aspergillus flavus; nongerminated, RPMI-1640, 2.5 μM): 55.8
Mean No. of Colonies (Aspergillus flavus; [6]): 55.5
Mean No. of Colonies (Aspergillus flavus; nongerminated, RPMI-1640, 7.5 μM): 54.9
Mean No. of Colonies (Aspergillus flavus; [7]): 60.0
lethality to bacteria [1]: not effective
lethality to bacteria [2]: not effective
lethality to bacteria [3]: not effective
lethality to bacteria [4]: not effective
activity at 5 µM (Aspergillus parasiticus; germinated, RPMI-1640, 5.0 μM): 56.6%
activity at 10 µM (Aspergillus parasiticus; germinated, RPMI-1640, 10.0 μM): 17.5%
activity at 15 µM (Aspergillus parasiticus; germinated, RPMI-1640, 15.0 μM): 12.7%
activity at 20 µM (Aspergillus parasiticus; germinated, RPMI-1640, 20.0 μM): 8.1%
activity at 5 µM (Aspergillus parasiticus; germinating, 1% PDB, 5.0 μM): 61.9%
activity at 10 µM (Aspergillus parasiticus; germinating, 1% PDB, 10.0 μM): 28%
activity at 15 µM (Aspergillus parasiticus; germinating, 1% PDB, 15.0 μM): 21%
activity at 20 µM (Aspergillus parasiticus; germinating, 1% PDB, 20.0 μM): 16.5%
activity at 5 µM (Aspergillus parasiticus; nongerminated, 1% PDB, 5.0 μM): 97.3%
activity at 10 µM (Aspergillus parasiticus; nongerminated, 1% PDB, 10.0 μM): 100%
activity at 15 µM (Aspergillus parasiticus; nongerminated, 1% PDB, 15.0 μM): 93.9%
activity at 20 µM (Aspergillus parasiticus; nongerminated, 1% PDB, 20.0 μM): 94.5%
activity at 5 µM (Aspergillus parasiticus; [6]): 103%
activity at 10 µM (Aspergillus parasiticus; [7]): 103%
activity at 15 µM (Aspergillus parasiticus; [8]): 87.9%
activity at 20 µM (Aspergillus parasiticus; [9]): 97.6%
minimal effective concentration (Aspergillus parasiticus; read-out: concentration required for significant viability reduction): 12.4 µg/mL
minimal effective concentration (Aspergillus parasiticus; germinating conidia, 1% PDB, p=0.001, read-out: concentration significantly reducing viability): 5 µM and 6.2 µg/mL
minimal effective concentration (Aspergillus parasiticus; germinating conidia, RPMI-1640, p=0.0002, read-out: concentration required for significant viability reduction): 10 µM
Mean No. of Colonies (Aspergillus parasiticus; germinated, RPMI-1640, 5.0 μM): 40.1
Mean No. of Colonies (Aspergillus parasiticus; germinated, RPMI-1640, 10.0 μM): 12.4
Mean No. of Colonies (Aspergillus parasiticus; germinated, RPMI-1640, 15.0 μM): 9.0
Mean No. of Colonies (Aspergillus parasiticus; germinated, RPMI-1640, 20.0 μM): 5.7
viability reduction (Aspergillus parasiticus; germinating conidia, 1% PDB): 85%
viability reduction (Aspergillus parasiticus; germinating conidia, RPMI-1640): 92%
Mean No. of Colonies (Aspergillus parasiticus; germinating, 1% PDB, 5.0 μM): 95.5
Mean No. of Colonies (Aspergillus parasiticus; germinating, 1% PDB, 10.0 μM): 43.3
Mean No. of Colonies (Aspergillus parasiticus; germinating, 1% PDB, 15.0 μM): 32.5
Mean No. of Colonies (Aspergillus parasiticus; germinating, 1% PDB, 20.0 μM): 25.5
viability of nongerminated conidia (Aspergillus parasiticus; [5]): not affected
Mean No. of Colonies (Aspergillus parasiticus; nongerminated, 1% PDB, 5.0 μM): 53.1
Mean No. of Colonies (Aspergillus parasiticus; nongerminated, 1% PDB, 10.0 μM): 54.6
Mean No. of Colonies (Aspergillus parasiticus; nongerminated, 1% PDB, 15.0 μM): 51.3
Mean No. of Colonies (Aspergillus parasiticus; nongerminated, 1% PDB, 20.0 μM): 51.9
Mean No. of Colonies (Aspergillus parasiticus; [6]): 42.5
Mean No. of Colonies (Aspergillus parasiticus; [7]): 42.5
Mean No. of Colonies (Aspergillus parasiticus; [8]): 36.4
Mean No. of Colonies (Aspergillus parasiticus; [9]): 40.4
